# Laboratory results from ChEMBL document CHEMBL1133274 (Bioorg Med Chem Lett, 2000).
# What was measured:
# Homo sapiens [1] = organism: Homo sapiens; test: Cytotoxicity of compound was determined against Lo Vo colon cancer cells in presence of GUS from Escherichia coli; format: functional, cell-based; settings: Cancer cell lines
# Homo sapiens [2] = organism: Homo sapiens; test: Cytotoxicity of compound was determined against Lo Vo colon cancer cells; format: functional, cell-based; settings: Cancer cell lines
structure (smiles),measurement,setting,value
O=C(O)[C@@H]1O[C@@H](Oc2ccc(COC(=O)N(CCCl)CCCl)cc2[N+](=O)[O-])[C@@H](O)[C@@H](O)[C@@H]1O,IC50,Homo sapiens [1],95 µM
same,IC50,Homo sapiens [2],> 400 µM
